In the kinase profiling compilation of Christmann-Franck et al. (2016):

Experiments:
Test in all cases: KINOMEscan competition binding
Settings in all cases: compound 10.0 µM
[1] = target: MAPK8 (human) (UniProt P45983)
[2] = target: DCLK1 (human) (UniProt O15075)
[3] = target: TYK2 JH2 pseudokinase (human) (UniProt P29597)
[4] = target: KIT (human) (UniProt P10721)
[5] = target: PRKCI (human) (UniProt P41743)
[6] = target: MAP2K1 (human) (UniProt Q02750)
[7] = target: PAK7 (human) (UniProt Q9P286)
[8] = target: DYRK1B (human) (UniProt Q9Y463)
[9] = target: GRK7 (human) (UniProt Q8WTQ7)
[10] = target: MAP3K3 (human) (UniProt Q99759)
[11] = target: BRAF (human) (UniProt P15056)
[12] = target: PLK2 (human) (UniProt Q9NYY3)
[13] = target: MATK (human) (UniProt P42679)
[14] = target: EPHB1 (human) (UniProt P54762)
[15] = target: SYK (human) (UniProt P43405)
[16] = target: NUAK2 (human) (UniProt Q9H093)
[17] = target: CSNK2A2 (human) (UniProt P19784)
CSNK2A2 (human), sequence (P19784 whole entry, looked up): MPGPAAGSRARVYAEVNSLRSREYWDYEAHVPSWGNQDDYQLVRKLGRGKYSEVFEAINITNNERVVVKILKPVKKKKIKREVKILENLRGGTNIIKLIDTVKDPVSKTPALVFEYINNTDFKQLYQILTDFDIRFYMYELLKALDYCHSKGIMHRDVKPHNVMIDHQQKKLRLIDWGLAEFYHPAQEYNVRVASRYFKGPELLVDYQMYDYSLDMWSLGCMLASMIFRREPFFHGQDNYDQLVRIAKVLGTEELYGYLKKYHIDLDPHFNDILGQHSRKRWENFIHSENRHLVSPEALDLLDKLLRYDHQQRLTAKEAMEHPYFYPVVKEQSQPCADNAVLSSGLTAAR

[18] = target: RIPK1 (human) (UniProt Q13546)
[19] = target: HIPK4 (human) (UniProt Q8NE63)
[20] = target: STK17B (human) (UniProt O94768)
[21] = target: PIP4K2C (human) (UniProt Q8TBX8)
[22] = target: DAPK3 (human) (UniProt O43293)
[23] = target: LRRK2 (human) (UniProt Q5S007)
[24] = target: MTOR (human) (UniProt P42345)
[25] = target: PIK3CG (human) (UniProt P48736)
[26] = target: ERN1 (human) (UniProt O75460)
[27] = target: IKBKB (human) (UniProt O14920)
IKBKB (human), sequence (O14920 whole entry, looked up): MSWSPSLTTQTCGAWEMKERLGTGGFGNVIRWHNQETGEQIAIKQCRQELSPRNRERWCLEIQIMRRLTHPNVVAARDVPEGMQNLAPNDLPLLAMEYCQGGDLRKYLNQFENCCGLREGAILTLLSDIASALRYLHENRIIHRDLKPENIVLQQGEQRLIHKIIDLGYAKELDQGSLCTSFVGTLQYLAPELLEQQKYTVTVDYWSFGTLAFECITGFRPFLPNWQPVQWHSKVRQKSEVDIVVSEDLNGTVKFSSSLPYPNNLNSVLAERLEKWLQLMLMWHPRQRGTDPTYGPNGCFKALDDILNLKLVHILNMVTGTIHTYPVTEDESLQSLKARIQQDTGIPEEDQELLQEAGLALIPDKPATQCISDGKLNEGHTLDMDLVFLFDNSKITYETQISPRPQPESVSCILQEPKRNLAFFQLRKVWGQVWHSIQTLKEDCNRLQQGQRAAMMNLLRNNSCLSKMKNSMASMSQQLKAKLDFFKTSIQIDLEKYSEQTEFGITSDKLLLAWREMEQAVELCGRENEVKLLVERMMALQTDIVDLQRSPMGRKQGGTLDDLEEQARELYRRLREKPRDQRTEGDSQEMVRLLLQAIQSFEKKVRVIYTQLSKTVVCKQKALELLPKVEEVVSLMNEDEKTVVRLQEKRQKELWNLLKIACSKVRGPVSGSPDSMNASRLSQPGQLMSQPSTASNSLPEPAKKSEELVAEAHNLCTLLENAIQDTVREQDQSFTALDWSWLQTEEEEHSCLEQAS

[28] = target: CDK11B (human) (UniProt P21127)
[29] = test system: KIT (human), P10721 [L576P]
KIT (human), P10721 [L576P], sequence (P10721 whole entry L576P, looked up): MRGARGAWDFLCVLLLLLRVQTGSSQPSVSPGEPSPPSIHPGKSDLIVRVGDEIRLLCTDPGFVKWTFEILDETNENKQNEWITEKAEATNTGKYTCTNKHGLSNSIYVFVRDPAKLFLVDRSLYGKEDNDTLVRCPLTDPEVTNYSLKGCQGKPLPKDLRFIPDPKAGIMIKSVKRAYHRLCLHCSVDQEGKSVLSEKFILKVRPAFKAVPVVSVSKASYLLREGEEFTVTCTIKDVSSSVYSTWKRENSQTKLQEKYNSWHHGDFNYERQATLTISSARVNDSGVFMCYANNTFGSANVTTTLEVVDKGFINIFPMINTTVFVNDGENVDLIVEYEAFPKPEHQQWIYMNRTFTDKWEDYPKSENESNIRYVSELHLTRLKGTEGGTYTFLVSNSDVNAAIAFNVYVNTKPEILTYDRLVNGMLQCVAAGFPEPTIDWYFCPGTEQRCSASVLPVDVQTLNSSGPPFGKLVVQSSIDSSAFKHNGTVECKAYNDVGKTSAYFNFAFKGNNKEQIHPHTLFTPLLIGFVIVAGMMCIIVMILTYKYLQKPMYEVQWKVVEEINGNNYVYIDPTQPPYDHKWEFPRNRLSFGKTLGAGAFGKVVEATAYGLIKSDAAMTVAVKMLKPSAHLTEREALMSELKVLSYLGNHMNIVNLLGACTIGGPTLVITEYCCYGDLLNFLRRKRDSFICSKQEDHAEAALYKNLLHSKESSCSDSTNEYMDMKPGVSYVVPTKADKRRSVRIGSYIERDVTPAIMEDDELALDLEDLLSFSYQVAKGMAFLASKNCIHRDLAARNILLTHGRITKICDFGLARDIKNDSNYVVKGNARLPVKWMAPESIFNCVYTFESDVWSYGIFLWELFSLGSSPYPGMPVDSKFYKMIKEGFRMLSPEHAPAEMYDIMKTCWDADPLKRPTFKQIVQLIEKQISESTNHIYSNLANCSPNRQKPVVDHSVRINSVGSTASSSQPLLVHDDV

[30] = target: MAP2K7 (human) (UniProt O14733)
MAP2K7 (human), sequence (O14733 whole entry, looked up): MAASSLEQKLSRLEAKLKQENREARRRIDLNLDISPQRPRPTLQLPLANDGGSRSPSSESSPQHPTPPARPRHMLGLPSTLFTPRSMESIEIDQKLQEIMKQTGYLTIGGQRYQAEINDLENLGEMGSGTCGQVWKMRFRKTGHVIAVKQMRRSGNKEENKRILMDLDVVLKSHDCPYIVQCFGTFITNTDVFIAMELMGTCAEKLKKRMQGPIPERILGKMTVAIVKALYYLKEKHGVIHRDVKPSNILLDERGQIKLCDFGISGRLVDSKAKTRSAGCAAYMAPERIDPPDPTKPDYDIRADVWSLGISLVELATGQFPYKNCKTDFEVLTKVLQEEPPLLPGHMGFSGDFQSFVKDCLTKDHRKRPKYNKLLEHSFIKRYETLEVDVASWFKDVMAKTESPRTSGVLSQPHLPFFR

[31] = target: SBK1 (human) (UniProt Q52WX2)
[32] = target: IRAK3 (human) (UniProt Q9Y616)
[33] = target: CAMK4 (human) (UniProt Q16566)
[34] = target: EPHA1 (human) (UniProt P21709)
[35] = target: EPHA5 (human) (UniProt P54756)
EPHA5 (human), sequence (P54756 whole entry, looked up): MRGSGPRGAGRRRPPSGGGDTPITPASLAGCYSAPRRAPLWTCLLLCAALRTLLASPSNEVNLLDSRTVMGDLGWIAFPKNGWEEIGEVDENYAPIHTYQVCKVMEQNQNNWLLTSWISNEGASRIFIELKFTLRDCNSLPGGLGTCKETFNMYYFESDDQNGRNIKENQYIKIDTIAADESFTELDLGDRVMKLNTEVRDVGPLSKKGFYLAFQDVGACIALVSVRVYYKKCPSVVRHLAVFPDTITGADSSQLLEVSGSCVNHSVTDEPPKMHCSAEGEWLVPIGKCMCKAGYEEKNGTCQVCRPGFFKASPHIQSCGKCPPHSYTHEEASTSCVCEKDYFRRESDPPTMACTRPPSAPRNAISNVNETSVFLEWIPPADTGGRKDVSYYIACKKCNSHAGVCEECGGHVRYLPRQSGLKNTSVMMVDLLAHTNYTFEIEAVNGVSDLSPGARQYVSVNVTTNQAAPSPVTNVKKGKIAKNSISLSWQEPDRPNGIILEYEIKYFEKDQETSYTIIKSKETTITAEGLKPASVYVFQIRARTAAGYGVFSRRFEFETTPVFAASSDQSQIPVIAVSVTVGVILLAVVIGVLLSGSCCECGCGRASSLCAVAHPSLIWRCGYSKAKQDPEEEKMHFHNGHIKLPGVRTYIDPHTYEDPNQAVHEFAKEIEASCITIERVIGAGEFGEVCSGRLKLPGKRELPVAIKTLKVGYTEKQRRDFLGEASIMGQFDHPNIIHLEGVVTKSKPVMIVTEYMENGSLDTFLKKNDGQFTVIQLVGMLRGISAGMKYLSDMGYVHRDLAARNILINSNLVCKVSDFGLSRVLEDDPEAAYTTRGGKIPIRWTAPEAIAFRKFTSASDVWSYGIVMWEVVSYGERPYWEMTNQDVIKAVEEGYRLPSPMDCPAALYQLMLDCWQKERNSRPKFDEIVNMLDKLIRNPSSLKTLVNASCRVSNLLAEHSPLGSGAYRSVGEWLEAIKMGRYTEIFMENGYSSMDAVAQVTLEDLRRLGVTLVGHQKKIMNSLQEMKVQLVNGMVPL

[36] = target: ANKK1 (human) (UniProt Q8NFD2)
[37] = target: ZAP70 (human) (UniProt P43403)
[38] = target: CDC42BPG (human) (UniProt Q6DT37)
[39] = target: PI4KB (human) (UniProt Q9UBF8)
PI4KB (human), sequence (Q9UBF8 whole entry, looked up): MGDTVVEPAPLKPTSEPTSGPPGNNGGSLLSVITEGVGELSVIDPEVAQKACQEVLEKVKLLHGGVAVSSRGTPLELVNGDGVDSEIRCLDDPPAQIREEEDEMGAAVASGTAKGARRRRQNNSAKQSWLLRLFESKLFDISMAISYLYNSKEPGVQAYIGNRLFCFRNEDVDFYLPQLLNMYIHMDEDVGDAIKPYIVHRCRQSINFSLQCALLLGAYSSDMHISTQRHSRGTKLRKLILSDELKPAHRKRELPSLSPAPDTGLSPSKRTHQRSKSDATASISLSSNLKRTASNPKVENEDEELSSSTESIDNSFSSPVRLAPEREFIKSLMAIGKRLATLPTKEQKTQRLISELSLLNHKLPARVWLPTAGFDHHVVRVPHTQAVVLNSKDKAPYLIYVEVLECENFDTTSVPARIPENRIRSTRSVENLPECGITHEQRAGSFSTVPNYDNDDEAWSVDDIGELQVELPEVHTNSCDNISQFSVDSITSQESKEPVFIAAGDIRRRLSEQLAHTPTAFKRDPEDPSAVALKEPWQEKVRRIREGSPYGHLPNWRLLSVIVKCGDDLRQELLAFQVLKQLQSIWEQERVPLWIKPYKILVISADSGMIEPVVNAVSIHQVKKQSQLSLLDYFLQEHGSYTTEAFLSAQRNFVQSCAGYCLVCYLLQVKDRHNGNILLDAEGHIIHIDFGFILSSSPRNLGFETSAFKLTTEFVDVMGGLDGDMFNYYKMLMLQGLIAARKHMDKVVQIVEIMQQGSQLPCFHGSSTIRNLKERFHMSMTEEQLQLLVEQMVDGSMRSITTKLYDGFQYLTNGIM

[40] = target: MARK4 (human) (UniProt Q96L34)

KIT (human), sequence (P10721 whole entry, looked up): as the sequence (P10721 whole entry L576P, looked up) above, with P576L counted along it
PRKCI (human), sequence (P41743 whole entry, looked up): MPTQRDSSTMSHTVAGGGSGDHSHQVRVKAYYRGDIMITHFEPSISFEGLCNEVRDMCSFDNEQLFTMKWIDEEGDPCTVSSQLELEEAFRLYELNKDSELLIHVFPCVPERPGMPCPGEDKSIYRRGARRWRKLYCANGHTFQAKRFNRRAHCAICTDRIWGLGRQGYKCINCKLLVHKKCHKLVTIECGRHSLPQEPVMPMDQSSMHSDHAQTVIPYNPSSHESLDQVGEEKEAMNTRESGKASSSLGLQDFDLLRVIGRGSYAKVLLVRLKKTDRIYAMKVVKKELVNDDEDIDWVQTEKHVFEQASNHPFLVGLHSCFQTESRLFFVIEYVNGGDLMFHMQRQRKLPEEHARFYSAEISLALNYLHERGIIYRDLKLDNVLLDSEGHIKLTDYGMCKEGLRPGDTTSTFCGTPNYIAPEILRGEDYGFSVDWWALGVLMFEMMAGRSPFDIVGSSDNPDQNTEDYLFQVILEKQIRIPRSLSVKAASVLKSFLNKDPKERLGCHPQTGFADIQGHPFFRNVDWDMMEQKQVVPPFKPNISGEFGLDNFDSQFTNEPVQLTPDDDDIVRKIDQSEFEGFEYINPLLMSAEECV

COc1cc(C(=O)N2CCC(N3CCN(C)CC3)CC2)ccc1Nc1ncc2c(n1)N(C)c1ccccc1C(=O)N2C
kinase still bound, per cent of control [1]: 95%
kinase still bound, per cent of control [2]: 4.2%
kinase still bound, per cent of control [3]: 100%
kinase still bound, per cent of control [4]: 100%
kinase still bound, per cent of control [5]: 100%
kinase still bound, per cent of control [6]: 100%
kinase still bound, per cent of control [7]: 96%
kinase still bound, per cent of control [8]: 94%
kinase still bound, per cent of control [9]: 100%
kinase still bound, per cent of control [10]: 97%
kinase still bound, per cent of control [11]: 81%
kinase still bound, per cent of control [12]: 100%
kinase still bound, per cent of control [13]: 100%
kinase still bound, per cent of control [14]: 98%
kinase still bound, per cent of control [15]: 100%
kinase still bound, per cent of control [16]: 47%
kinase still bound, per cent of control [17]: 93%
kinase still bound, per cent of control [18]: 99%
kinase still bound, per cent of control [19]: 100%
kinase still bound, per cent of control [20]: 93%
kinase still bound, per cent of control [21]: 40%
kinase still bound, per cent of control [22]: 67%
kinase still bound, per cent of control [23]: 0%
kinase still bound, per cent of control [24]: 97%
kinase still bound, per cent of control [25]: 15%
kinase still bound, per cent of control [26]: 59%
kinase still bound, per cent of control [27]: 89%
kinase still bound, per cent of control [28]: 84%
kinase still bound, per cent of control [29]: 100%
kinase still bound, per cent of control [30]: 100%
kinase still bound, per cent of control [31]: 100%
kinase still bound, per cent of control [32]: 100%
kinase still bound, per cent of control [33]: 79%
kinase still bound, per cent of control [34]: 100%
kinase still bound, per cent of control [35]: 95%
kinase still bound, per cent of control [36]: 100%
kinase still bound, per cent of control [37]: 79%
kinase still bound, per cent of control [38]: 100%
kinase still bound, per cent of control [39]: 95%
kinase still bound, per cent of control [40]: 78%
